Source: PMC3517602 (PLoS ONE, 2012)

Target: T1, neuropeptide Y Y1 receptor (Y1R) (Homo sapiens, UniProt P25929)
T1 construct: gene NPY1R
T1 sequence (P25929 1-384): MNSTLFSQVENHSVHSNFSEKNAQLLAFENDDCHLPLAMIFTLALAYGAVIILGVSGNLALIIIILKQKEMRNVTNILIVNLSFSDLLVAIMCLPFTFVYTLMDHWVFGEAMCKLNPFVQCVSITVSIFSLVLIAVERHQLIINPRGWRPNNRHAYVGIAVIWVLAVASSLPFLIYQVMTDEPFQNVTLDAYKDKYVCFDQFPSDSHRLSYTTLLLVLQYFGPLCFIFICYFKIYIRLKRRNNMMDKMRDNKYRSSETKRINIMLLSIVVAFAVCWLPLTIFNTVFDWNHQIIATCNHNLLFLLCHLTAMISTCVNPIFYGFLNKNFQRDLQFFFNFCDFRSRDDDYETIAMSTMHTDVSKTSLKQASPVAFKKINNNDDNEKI
Test: radioligand saturation binding on whole MCF-7 (L) cells
Type: cell-based

## CCC(=O)/N=C(/N)NCCC[C@@H](NC(=O)C(c1ccccc1)c1ccccc1)C(=O)NCc1ccc(O)cc1 [[^3H]-UR-MK114]
  Kd: 5 nM
